Measured values from patent US12590062B2, “PD-1/PD-L1 inhibitors” (Gilead Sciences, Inc., priority 2017, dated 2026).

What was measured:
[1] = target: PD-1/PD-L1 (Homo sapiens, UniProt Q9NZQ7); assay: PD-1/PD-L1 biochemical protein-protein interaction assay (ALPHA); format: binding; details: 0.3 nM His tagged PD-L1, 2.5 nM biotinylated Fc-PD-1, 60 minutes at 25° C., read-out: IC50 PD-L1-PD-1 Alpha IC50-mono PD-L1-fcP-D1
In short: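 Compounds are tested for blocking the PD-1/PD-L1 extracellular-domain interaction using an ALPHA bead assay, in which inhibition lowers the luminescent signal. Reactions run 60 min at 25° C with 0.3 nM His-PD-L1 and 2.5 nM biotinylated Fc-PD-1. IC50 values come from four-parameter fits.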

[2] = target: T1, PD-1/PD-L1 interaction (Homo sapiens, UniProt Q9NZQ7); assay: PD-1/PD-L1 NFAT reporter co-culture assay; format: cell-based; details: Jurkat PD-1 NFAT-luciferase cells co-cultured with aAPC-PD-L1 CHO cells, 6 hrs at 37° C.; read-out: EC50 NFAT Luciferase
T1 construct: expressed in transfected cells; host or cells: CHO cells (aAPC-PD-L1) co-cultured with Jurkat cells overexpressing PD-1 and an NFAT-luciferase reporter
In short: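 CHO aAPC-PD-L1 seeded overnight; PD-1/NFAT-luc Jurkat + cpd in RPMI 1640, 2% FBS added at once; 6 h, 37 °C; ONE-Glo luminescence; EC50, 4-parameter fit.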

[3] = target: T2, PD-L1 (Homo sapiens, UniProt Q9NZQ7); assay: PD-L1/PD-L1 dimerization biochemical protein-protein interaction assay (ALPHA); format: binding; details: compound-induced PD-L1 dimerization, head prints '1 nM' (0.5 nM His-tagged PD-L1 and 0.5 nM FLAG-tagged PD-L1), read-out: AC50 PDL1 Dimer Alpha 1 nM
T2 construct: determine if they can specifically dimerize the extracellular domains of PD-L1
In short: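 ALPHA proximity assay of compound-induced dimerization of 0.5 nM His-tagged and 0.5 nM FLAG-tagged PD-L1 extracellular domains in Hepes pH 7.4 buffer, 2 h at 25 °C. Anti-His acceptor then anti-FLAG donor beads, 60 min each; AC50 from four-parameter fit.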

T1 sequence (Q9NZQ7 19-290): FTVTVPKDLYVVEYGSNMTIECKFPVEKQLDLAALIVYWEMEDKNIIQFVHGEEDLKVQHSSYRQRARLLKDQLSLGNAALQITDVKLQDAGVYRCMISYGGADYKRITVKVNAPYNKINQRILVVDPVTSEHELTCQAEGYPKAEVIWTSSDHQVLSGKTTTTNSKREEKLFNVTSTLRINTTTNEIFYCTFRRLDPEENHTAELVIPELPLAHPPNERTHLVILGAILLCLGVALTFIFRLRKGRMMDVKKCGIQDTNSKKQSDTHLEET
PD-1/PD-L1, sequence (Q9NZQ7 19-238 limits assumed): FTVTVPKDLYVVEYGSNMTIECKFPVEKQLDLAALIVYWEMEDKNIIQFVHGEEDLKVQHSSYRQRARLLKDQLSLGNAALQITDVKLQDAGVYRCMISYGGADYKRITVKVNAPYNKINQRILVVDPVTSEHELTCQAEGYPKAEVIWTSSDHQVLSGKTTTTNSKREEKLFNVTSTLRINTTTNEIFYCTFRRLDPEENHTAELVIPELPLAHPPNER
T2 sequence (Q9NZQ7 19-238 limits assumed): as above
T2 sequence (Q9NZQ7 19-238 limits assumed): as above

Structure (SMILES) | IC50 [1] | EC50 [2] | AC50 [3]
COc1nc(O[C@H]2CCc3c(-c4cccc(-c5cnc(CN6CC(CO)C6)c(OC)n5)c4Cl)cccc32)c(Cl)cc1CN1CC[C@H](C(=O)O)C1 [Example 703] | 0.064 nM | 11 nM | 24.2 nM
COc1nc(-c2cccc(-c3cccc4c3CC[C@@H]4Oc3nc(OC)c(CN4CC[C@H](C(=O)O)C4)cc3Cl)c2Cl)ccc1CN1CC(CO)C1 [Example 704] | 0.064 nM | 11 nM | 66.8 nM
COc1nc(O[C@H]2CCc3c(-c4cccc(-c5cnc(CN6CC(C)(O)C6)c(OC)n5)c4Cl)cccc32)c(Cl)cc1CN1CC[C@H](C(=O)O)C1 [Example 705] | 0.064 nM | 20 nM | 60.6 nM
COc1nc(-c2cccc(-c3cccc4c3CC[C@@H]4Oc3nc(OC)c(CN4CC[C@H](C(=O)O)C4)cc3Cl)c2Cl)ccc1CN1CC(C)(O)C1 [Example 706] | 0.064 nM | 14 nM | 42.8 nM
COc1nc(O[C@H]2CCc3c(-c4cccc(-c5cnc(CN6CC(C)(CO)C6)c(OC)n5)c4Cl)cccc32)c(Cl)cc1CN1CC[C@H](C(=O)O)C1 [Example 707] | 0.064 nM | 31 nM | 39.3 nM
COc1nc(-c2cccc(-c3cccc4c3CC[C@@H]4Oc3nc(OC)c(CN4CC[C@H](C(=O)O)C4)cc3Cl)c2Cl)ccc1CN1CC(C)(CO)C1 [Example 708] | 0.064 nM | 34 nM | 38.6 nM
COc1nc(O[C@H]2CCc3c(-c4cccc(-c5cnc(CN6CC(O)C6)c(OC)n5)c4Cl)cccc32)c(Cl)cc1CN1CC[C@H](C(=O)O)C1 [Example 709] | 0.064 nM | 21 nM | 49.4 nM
COc1nc(-c2cccc(-c3cccc4c3CC[C@@H]4Oc3nc(OC)c(CN4CC[C@H](C(=O)O)C4)cc3Cl)c2Cl)ccc1CN1CC(O)C1 [Example 710] | 0.064 nM | 22 nM | 54.6 nM
COc1nc(O[C@H]2CCc3c(-c4cccc(-c5cnc(CNC[C@H]6C[C@H](O)C6)c(OC)n5)c4Cl)cccc32)c(Cl)cc1CN1CC[C@H](C(=O)O)C1 [Example 711] | 0.069 nM | 69 nM | 103 nM
COc1nc(-c2cccc(-c3cccc4c3CC[C@@H]4Oc3nc(OC)c(CN4CC[C@H](C(=O)O)C4)cc3Cl)c2Cl)ccc1CNC[C@H]1C[C@H](O)C1 [Example 712] | 0.064 nM | 12 nM | 33 nM
COc1nc(-c2cccc(-c3cccc4c3CC[C@@H]4Oc3nc(OC)c(CN4CC(C(=O)O)C4)cc3Cl)c2Cl)ccc1CN1CC2(CCC(=O)N2)C1 [Example 713] | 0.064 nM | 25 nM | 69.4 nM
COc1nc(-c2cccc(-c3cccc4c3CC[C@@H]4Oc3nc(OC)c(CN4CC[C@H](C(=O)O)C4)cc3Cl)c2Cl)ccc1CN1CC2(CCC(=O)N2)C1 [Example 714] | 0.064 nM | 26 nM | 66.3 nM
COc1nc(O[C@H]2CCc3c(-c4cccc(-c5ccc(CNC[C@@H]6CCC(=O)N6)cc5)c4Cl)cccc32)c(Cl)cc1CN1CCCC[C@H]1C(=O)O [Example 715] | 0.064 nM | 35 nM | 7.89 nM
COc1nc(O[C@H]2CCc3c(-c4cccc(-c5ccc(CNC[C@@H]6CCC(=O)N6)cc5)c4Cl)cccc32)c(Cl)cc1CN[C@H]1CCC[C@H]1O [Example 716] | 0.403 nM | 343 nM | 15.1 nM
COc1nc(O[C@H]2CCc3c(-c4cccc(-c5ccc(CNC[C@@H]6CCC(=O)N6)cc5)c4Cl)cccc32)c(Cl)cc1CN[C@@H]1CCC[C@@H]1O [Example 717] | 0.572 nM | 484 nM | 16.2 nM
COc1nc(O[C@H]2CCc3c(-c4cccc(-c5ccc(CNC[C@@H]6CCC(=O)N6)cc5)c4Cl)cccc32)c(Cl)cc1CN1CC[C@H](O)C1 [Example 718] | 0.242 nM | 704 nM | 70.4 nM
COc1nc(O[C@H]2CCc3c(-c4cccc(-c5ccc(CNC[C@@H]6CCC(=O)N6)cc5)c4Cl)cccc32)c(Cl)cc1CN1CCC[C@H](C(=O)O)C1 [Example 719] | 0.064 nM | 110 nM | 32.7 nM
COc1nc(O[C@H]2CCc3c(-c4cccc(-c5ccc(CNC[C@@H]6CCC(=O)N6)cc5)c4Cl)cccc32)c(Cl)cc1CN1CC(O)C1 [Example 720] | 0.262 nM | 558 nM | 94.9 nM

Structure (SMILES) | IC50 [1] | EC50 [2] | AC50 [3]
COc1nc(O[C@H]2CCc3c(-c4cccc(-c5ccc(CNC[C@@H]6CCC(=O)N6)cc5)c4Cl)cccc32)c(Cl)cc1CN1CC(C(=O)O)C1 [Example 721] | 0.064 nM | 14 nM | 19 nM
COc1nc(O[C@H]2CCc3c(-c4cccc(-c5ccc(CNC[C@@H]6CCC(=O)N6)cc5)c4Cl)cccc32)c(Cl)cc1CN1CC[C@@H](C(=O)O)C1 [Example 722] | 0.064 nM | 47 nM | 16 nM
COc1nc(O[C@H]2CCc3c(-c4cccc(-c5ccc(CNC[C@@H]6CCC(=O)N6)cc5)c4Cl)cccc32)c(Cl)cc1CN1CC[C@H](C(=O)O)C1 [Example 723] | 0.064 nM | 41 nM | 35.1 nM
COc1nc(O[C@H]2CCc3c(-c4cccc(-c5ccc(CNC[C@@H]6CCC(=O)N6)cc5)c4Cl)cccc32)c(Cl)cc1CN1CCC[C@@H]1C(=O)O [Example 724] | 0.064 nM | 120 nM | 21.2 nM
COc1nc(O[C@H]2CCc3c(-c4cccc(-c5ccc(CNC[C@@H]6CCC(=O)N6)cc5)c4Cl)cccc32)c(Cl)cc1CN1CCC[C@H]1C(=O)O [Example 725] | 0.064 nM | 88 nM | 14.3 nM
COc1nc(-c2cccc(-c3cccc4c3CC[C@@H]4Oc3nc(OC)c(CN4CC5(CCC(=O)N5)C4)cc3Cl)c2Cl)ccc1CNC[C@@H]1CCC(=O)N1 [Example 726] | 0.125 nM | 76 nM | 81.9 nM
COc1nc(-c2cccc(-c3cccc4c3CC[C@@H]4Oc3nc(OC)c(CN[C@@](C)(CO)C(=O)O)cc3Cl)c2Cl)ccc1CNC[C@@H]1CCC(=O)N1 [Example 727] | 0.064 nM | 27 nM | 15.8 nM
COc1nc(-c2cccc(-c3cccc4c3CC[C@@H]4Oc3nc(OC)c(CNC[C@@H](O)CC(=O)O)cc3Cl)c2Cl)ccc1CNC[C@@H]1CCC(=O)N1 [Example 728] | 0.064 nM | 25 nM | 15 nM
COc1nc(O[C@H]2CCc3c(-c4cccc(-c5ccc(CNC[C@@H]6CCC(=O)N6)cc5)c4Cl)cccc32)c(Cl)cc1CN1CC2(CCC(=O)N2)C1 [Example 729] | 0.935 nM | 652 nM | 49 nM
COc1nc(O[C@H]2CCc3c(-c4cccc(-c5ccc(CNC[C@@H]6CCC(=O)N6)cc5)c4Cl)cccc32)c(Cl)cc1CNC[C@@H]1CCC(=O)N1 [Example 730] | 0.74 nM | 100 nM | 40.7 nM
COc1nc(O[C@H]2CCc3c(-c4cccc(-c5ccc(CNC[C@@H]6CCC(=O)N6)cc5)c4Cl)cccc32)c(Cl)cc1CN[C@@](C)(CO)C(=O)O [Example 731] | 0.064 nM | 26 nM | 16 nM
COc1nc(O[C@H]2CCc3c(-c4cccc(-c5ccc(CNC[C@@H]6CCC(=O)N6)cc5)c4Cl)cccc32)c(Cl)cc1CNC[C@@H](O)CC(=O)O [Example 732] | 0.074 nM | 14 nM | 2.69 nM
COc1nc(-c2cccc(-c3cccc4c3CC[C@@H]4Oc3nc(OC)c(CN4CC5(CCC(=O)N5)C4)cc3Cl)c2Cl)ccc1CN1CC2(CCC(=O)N2)C1 [Example 733] | 0.222 nM | 120 nM | 129 nM
COc1nc(-c2cccc(-c3cccc4c3CC[C@@H]4Oc3nc(OC)c(CNC[C@@H]4CCC(=O)N4)cc3Cl)c2Cl)ccc1CNC[C@@H]1CCC(=O)N1 [Example 734] | 0.463 nM | 36 nM | 46 nM
COc1nc(-c2cccc(-c3cccc4c3CC[C@@H]4Oc3nc(OC)c(CN4CC5(CCC(=O)N5)C4)cc3Br)c2Cl)ccc1CN1CC2(CCC(=O)N2)C1 [Example 735] | 0.345 nM | 95 nM | 104 nM
COc1nc(-c2cccc(-c3cccc4c3CC[C@@H]4Oc3nc(OC)c(CNC[C@@H]4CCC(=O)N4)cc3Br)c2Cl)ccc1CNC[C@@H]1CCC(=O)N1 [Example 736] | 0.153 nM | 22 nM | 18.4 nM
C[C@@](CO)(NCc1cc(Br)c(O[C@H]2CCc3c(-c4cccc(-c5ccc(C6=NCCN6)cc5)c4Cl)cccc32)nc1OCc1cncc(C#N)c1)C(=O)O [Example 737] | 0.064 nM | 80 nM | 8.23 nM
C[C@@](CO)(NCc1cc(Cl)c(O[C@H]2CCc3c(-c4cccc(-c5ccc(C6=NCCN6)cc5)c4Cl)cccc32)nc1OCc1cncc(C#N)c1)C(=O)O [Example 738] | 0.064 nM | 72 nM | 8.06 nM
